Test results reported in patent US11656224B2, “Multivalent glycan microarray platform” (Z Biotech, LLC, priority 2016, dated 2023).

Key:
[1] = test system: HIV broadly neutralizing antibody 2G12; test: 2G12 antibody binding to high-mannose N-glycans on hydrazide substrate with or without aniline; details: aniline-coated substrate
From the text: 2G12 is pre-complexed with Cy3 labeled anti-Human IgG (1:4 ratio). […] 2G12 is pre-complexed with Cy3 labeled anti-Human IgG (1:4 ratio). […] CD15 antibody is detected with Alexa Fluor 555-labeled anti-mouse IgM secondary antibody. […] The aniline can serve as a catalyst to increase aldehyde-hydrazide coupling efficiency, thus enhance the immobilization capability for glycans containing free reducing-end. The use of aniline as a nucleophilic catalyst accelerates bond formation through a Schiff base intermediate (mechanism in FIG. 4D).

[2] = target: T1, Soybean agglutinins (SBA) lectin (Glycine max, UniProt P05046); test: SBA lectin binding to glycan array on polystyrene polymer slides; details: SBA 10 μg/ml, PAMAM G3 NHS, Cy5 labeled streptavidin
T1 sequence (P05046 33-285): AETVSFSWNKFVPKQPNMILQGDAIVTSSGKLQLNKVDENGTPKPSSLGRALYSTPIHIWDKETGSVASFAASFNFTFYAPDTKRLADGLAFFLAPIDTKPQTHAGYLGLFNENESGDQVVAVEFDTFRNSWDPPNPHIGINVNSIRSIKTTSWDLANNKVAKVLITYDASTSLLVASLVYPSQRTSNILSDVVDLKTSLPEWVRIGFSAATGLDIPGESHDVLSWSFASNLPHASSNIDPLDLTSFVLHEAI
From the text: (§1) (PAMAM) dendrimer generation 3 functionalized with N-hydroxysuccinimide (NHS) groups (Example 5). The glycan array was fabricated same as described in Example 7. Biotinylated lectins (e.g., SBA, FIG. 7; PNA, FIG. 8; and ConA, FIG. 9) were used for examine the binding on the glycan array by detection with a Cy5 labeled streptavidin.

[3] = target: T1, Soybean agglutinins (SBA) lectin; test: SBA lectin binding to O-mucin glycan microarray (NHS PAMAM G2 glass slide); details: SBA 1 μg/ml; O-mucin glycan microarray on glass; Cy3 labeled streptavidin
Protocol: For this purpose, a library containing 12 glycan probes representing 0-GalNAc glycan structures in mucin (Table 2) was immobilized onto a glass slide coated with PAMAM dendrimer (generation 2) terminated with NHS functional groups (Example 1). Each glycan was dissolved in a Print Buffer containing 150 mM sodium phosphate, (pH 8.5) with 100 μM concentration and printed onto the slides using ˜1 nL probe. The printing process was performed in 60% relative humidity. After printing the glycan immobilization can be enhanced by incubation at room temperature for 12 hours in 60% relative humidity.
The carbohydrate-protein interaction can be investigated by interrogating the microarray with lectins or glycan-binding proteins. In detail, first the arrayed slides were briefly rinsed in MilliQ water and then affixed into an assay chamber. The arrays were treated with a blocking buffer, such as 25 mM ethanolamine in 100 mM boric acid, 0.01% Tween 20 (pH 8.5). A biotinylated lectin (e.g., Helix pomatia Agglutinin (HPA)) or a glycan-binding protein dissolved in an Assay Buffer was subjected to the array for incubation. The Assay Buffer could be 20 mM Tris-HCl, 150 mM NaCl, 0.05% Tween 20, 1 mM CaCl2), 1 mM MgCl2, 1% BSA (pH 7.6). The protein-carbohydrate binding was detected by applying a Cy3 labeled streptavidin. The binding intensities—relative fluorescence units (RFU)—were quantified by using a fluorescence-based microarray scanner (FIG. 6).

[4] = target: T2, peanut agglutinin (PNA) lectin (Arachis hypogaea, UniProt P02872); test: PNA lectin binding to glycan array on polystyrene polymer slides; details: PNA 10 μg/ml, PAMAM G3 NHS, Cy5 labeled streptavidin
T2 sequence (P02872 24-273): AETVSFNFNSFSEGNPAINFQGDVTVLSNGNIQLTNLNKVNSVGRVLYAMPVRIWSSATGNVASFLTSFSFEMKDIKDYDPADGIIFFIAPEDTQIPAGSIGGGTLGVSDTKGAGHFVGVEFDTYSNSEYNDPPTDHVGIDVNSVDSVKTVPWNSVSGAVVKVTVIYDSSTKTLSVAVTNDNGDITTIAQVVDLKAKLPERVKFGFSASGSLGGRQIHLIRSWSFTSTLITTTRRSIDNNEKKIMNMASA
From the text: as §1

Molecule: [Manα1-2] [Manα1-2] Manα1-6(Manα1-3)Manα1-6(Manα1-2Manα1-3)Manβ1-4GlcNAcβ1-4GlcNAc-(3 isomers) [Glycan 90]
- binding to 2G12 antibody [1]: specific binding

Molecule: CC(=O)N[C@H]1[C@@H](O[C@H](C)[C@H](N)C(=O)O)O[C@H](CO)[C@H](O)[C@@H]1O [Tn-Thr, α-GalNAc-Thr]
- binding to SBA lectin [2]: specific binding
- binding to SBA lectin [3]: specific binding

Molecule: CC(=O)NC1C(OC(C)C(N)C(=O)O)OC(CO)C(O)C1OC1OC(CO)C(O)C(O)C1O (stereo not drawn) [T-Thr, Galβ1-3GalNAcα1-Thr]
- binding to PNA lectin [4]: specific binding

Molecule: H2N-APGST*APP-NH2 (*α-GalNAc)
- binding to SBA lectin [2]: specific binding
- binding to SBA lectin [3]: specific binding

Molecule: H2N-TSAPDT*RPAP-NH2 (*α-GalNAc)
- binding to SBA lectin [3]: specific binding

Molecule: CC(=O)NC1C(OCC(N)C(=O)O)OC(CO)C(O)C1OC1OC(CO)C(O)C(O)C1O (stereo not drawn) [T-Ser, Galβ1-3GalNAcα1-Ser]
- binding to PNA lectin [4]: specific binding

Molecule: CC(=O)N[C@H]1[C@@H](OC[C@H](N)C(=O)O)O[C@H](CO)[C@H](O)[C@@H]1O [Tn-Ser, α-GalNAc-Ser]
- binding to SBA lectin [3]: specific binding
